According to patent US9890138B2, “Diaminopyrimidine derivatives and processes for the preparation thereof” (YUHAN CORPORATION, priority 2011, dated 2018):
Where a name gives a salt, the structure may show the parent alone.

Molecular target: T1, human 5-HT4(a) (Homo sapiens, UniProt Q13639)
T1 construct: host or cells: GeneBlAzer HTR4-CRE-bla CHO-K1 cells
Assay: Evaluation of agonistic activity in CHO-K1 cells expressing human 5-HT4(a) (GeneBlAzer HTR4-CRE-bla CHO-K1, beta-lactamase reporter)
Format: cell-based
Details: CHO-K1 cells stably expressing human 5-HT4(a)
Outline: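 GeneBlAzer HTR4-CRE-bla CHO-K1 cells, 10^4/well overnight, exposed 5 h to compounds at 8 concentrations in medium with 1% DMSO in the added solution. β-lactamase substrate 2 h in dark; 410 nm excitation, 465/535 nm emission ratio; EC50 by non-linear regression.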

T1 sequence (Q13639 1-387 isoform Q13639-2): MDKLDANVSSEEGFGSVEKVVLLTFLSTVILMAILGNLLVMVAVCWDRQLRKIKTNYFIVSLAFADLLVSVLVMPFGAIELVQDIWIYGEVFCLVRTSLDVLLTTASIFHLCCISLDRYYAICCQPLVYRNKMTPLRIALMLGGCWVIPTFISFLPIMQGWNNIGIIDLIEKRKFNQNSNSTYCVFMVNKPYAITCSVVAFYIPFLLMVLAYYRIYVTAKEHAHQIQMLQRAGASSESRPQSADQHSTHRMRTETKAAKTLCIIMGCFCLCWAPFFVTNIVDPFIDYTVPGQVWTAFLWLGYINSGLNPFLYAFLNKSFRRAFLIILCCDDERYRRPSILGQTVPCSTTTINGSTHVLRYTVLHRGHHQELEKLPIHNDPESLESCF

SMILES	EC50 [nM]
CCCc1cc(N2CC[C@H](NC(=O)CC)C2)nc(Nc2cccc(C#N)c2)n1 [Example 146, (S)-N-{1-[2-(3-cyanophenylamino)-6-propylpyrimidin-4-yl]pyrrolidin-3-yl}propionamide]	0.084
CCCc1cc(N2CC[C@H](NC(=O)CN)C2)nc(Nc2cccc(C#N)c2)n1 [Example 395]	0.082
C/C=C(\C)C(=O)N[C@H]1CCN(c2cc(CCC)nc(Nc3cccc(C#N)c3)n2)C1 [Example 149, (S,E)-N-{1-[2-(3-cyanophenylamino)-6-propylpyrimidin-4-yl]pyrrolidin-3-yl}-2-methylbut-2-enamide]	0.277
CCCCc1cc(N2CC[C@H](NC(C)=O)C2)nc(Nc2ccc(C)c(C#N)c2)n1 [Example 492, (S)-N-{1-[6-butyl-2-(3-cyano-4-methylphenylamino)pyrimidin-4-yl]pyrrolidin-3-yl}acetamide hydrochloride]	0.019
CCCc1cc(N2CC[C@H](N)C2)nc(Nc2ccc(C)c(C#N)c2)n1 [Example 354, (S)-5-[4-(3-aminopyrrolidin-1-yl)-6-propylpyrimidin-2-ylamino]-2-methylbenzonitrile dihydrochloride]	0.003
CCCc1cc(N2CCC[C@H]2COC)nc(Nc2ccc3cc[nH]c3c2)n1 [Example 189]	0.028
CCCc1cc(N2CCC[C@H]2CO)nc(Nc2ccc(N)c(C#N)c2)n1 [Example 215]	0.018
CCCc1cc(N2CCC[C@@H]2CO)nc(Nc2ccc3cc[nH]c3c2)n1 [Example 186]	0.382
CCCc1cc(N2CC[C@H](NC(=O)Cc3ccc(F)cc3)C2)nc(Nc2cccc(C#N)c2)n1 [Example 67, (S)-N-{1-[2-(3-cyanophenylamino)-6-propylpyrimidin-4-yl]pyrrolidin-3-yl}-2-(4-fluorophenyl)acetamide]	0.19
CCCc1cc(N2CCC[C@H]2COC)nc(Nc2cccc([N+](=O)[O-])c2)n1 [Example 32, (S)-4-[2-(methoxymethyl)pyrrolidin-1-yl]-N-(3-nitrophenyl)-6-propylpyrimidin-2-amine]	0.23
CCCc1cc(N2CCC[C@H]2C)nc(Nc2ccc(F)c(C#N)c2)n1 [Example 325]	0.085
CCCCc1cc(N2CCC[C@H]2CO)nc(Nc2cccc(C#N)c2)n1 [Example 224]	0.0043
CCCCc1cc(N2CC[C@H](NC)C2)nc(Nc2ccc(N)c(C#N)c2)n1 [Example 447]	0.0023
CCCc1cc(N2CC[C@H](NCC3CC3)C2)nc(Nc2cccc(SC)c2)n1 [Example 378]	0.015
CCCc1cc(N2CCC[C@H]2COC)nc(Nc2ccc(N)c([N+](=O)[O-])c2)n1 [Example 46, (S)-N^1-{4-[2-(methoxymethyl)pyrrolidin-1-yl]-6-propylpyrimidin-2-yl}-3-nitrobenzene-1,4-diamine]	0.0097
CCCc1cc(N2CCC[C@H]2COC)nc(Nc2ccc(C)c([N+](=O)[O-])c2)n1 [Example 40, (S)-4-[2-(methoxymethyl)pyrrolidin-1-yl]-N-(4-methyl-3-nitrophenyl)-6-propylpyrimidin-2-amine]	0.03
CCCCc1cc(N2CC[C@H](NC)C2)nc(Nc2cccc(C#N)c2)n1 [Example 226]	0.052
CCCc1cc(N2CC[C@H](N)C2)nc(Nc2cc(N)cc(C(F)(F)F)c2)n1 [Example 342]	0.0055
CCCc1cc(N2CC[C@H](NC)C2)nc(Nc2cccc(C#N)c2)n1 [Example 50, (S)-3-{4-[3-(methylamino)pyrrolidin-1-yl]-6-propylpyrimidin-2-ylamino}benzonitrile]	0.012
CCCc1cc(N2CC[C@H](NCc3ccsc3)C2)nc(Nc2cccc(C#N)c2)n1 [Example 113, (S)-3-{4-propyl-6-[3-(thiophen-3-ylmethylamino)pyrrolidin-1-yl]pyrimidin-2-ylamino}benzonitrile]	0.016
CCCc1cc(N2CCC(NC(C)=O)C2)nc(Nc2ccc(N)c(C#N)c2)n1 (centres unmarked) [Example 311]	0.019
CCCc1cc(N2CC[C@H](NC(=O)CCN3CCCCC3)C2)nc(Nc2cccc(C#N)c2)n1 [Example 63, (S)-N-{1-[2-(3-cyanophenylamino)-6-propylpyrimidin-4-yl]pyrrolidin-3-yl}-3-(piperidin-1-yl)propanamide]	0.13
CCCc1cc(N2CC[C@H](NC(C)=O)C2)nc(Nc2ccc(F)c(C#N)c2)n1 [Example 251]	0.01
CCCc1cc(N2CCC(NC(C)=O)C2)nc(Nc2ccc(C)c(Cl)c2)n1 (centres unmarked) [Example 304]	0.07
CCCc1cc(N2CC[C@H](NCC)C2)nc(Nc2ccc(F)cc2)n1 [Example 18, (S)-4-[3-(ethylamino)pyrrolidin-1-yl]-N-(4-fluorophenyl)-6-propylpyrimidin-2-amine]	0.14
CCCc1cc(N2CC[C@H](NCC(C)CC)C2)nc(Nc2cccc(C#N)c2)n1 (stereo partly drawn) [Example 95, 3-{4-[(3S)-3-(2-methylbutylamino)pyrrolidin-1-yl]-6-propylpyrimidin-2-ylamino}benzonitrile]	0.081
CCCc1cc(N2CC[C@H](NCc3ccccc3)C2)nc(Nc2cccc(C#N)c2)n1 [Example 87, (S)-3-{4-[3-(benzylamino)pyrrolidin-1-yl]-6-propylpyrimidin-2-ylamino}benzonitrile]	0.048

SMILES	EC50 [nM]
CCCc1cc(N2CC[C@H](NC(C)=O)C2)nc(Nc2ccc(C)c([N+](=O)[O-])c2)n1 [Example 249, (S)—N-{1-[2-(4-methyl-3-nitrophenylamino)-6-propylpyrimidin-4-yl]pyrrolidin-3-yl}acetamide]	0.0018
CCCc1cc(N2CC[C@H](NC3CCC3)C2)nc(Nc2cccc(C#N)c2)n1 [Example 142, (S)-3-{4-[3-(cyclobutylamino)pyrrolidin-1-yl]-6-propylpyrimidin-2-ylamino}benzonitrile]	0.01
CCCc1cc(N2CC[C@H](NC(C)=O)C2)nc(Nc2ccc(F)c([N+](=O)[O-])c2)n1 [Example 248, (S)—N-{1-[2-(4-fluoro-3-nitrophenylamino)-6-propylpyrimidin-4-yl]pyrrolidin-3-yl}acetamide]	0.016
CCCc1cc(N2CC[C@H](NCc3ccc[nH]3)C2)nc(Nc2cccc(C#N)c2)n1 [Example 111, (S)-3-(4-{3-[(1H-pyrrol-2-yl)methylamino]pyrrolidin-1-yl}-6-propylpyrimidin-2-ylamino)benzonitrile]	0.008
CCCc1cc(N2CC[C@H](NC3CN(C(=O)OC(C)(C)C)C3)C2)nc(Nc2cccc(C#N)c2)n1 [Example 144, (S)-tert-butyl 3-{1-[2-(3-cyanophenylamino)-6-propylpyrimidin-4-yl]pyrrolidin-3-ylamino}azetidine-1-carboxylate]	0.036
CCCCc1cc(N2CC[C@H](N(CC)CC)C2)nc(Nc2cccc(C#N)c2)n1 [Example 236]	0.209
CCCCc1cc(N2CC[C@H](NCC)C2)nc(Nc2ccc(F)c([N+](=O)[O-])c2)n1 [Example 463]	0.0021
CCCc1cc(N2CCCC2CO)nc(Nc2ccc3cc[nH]c3c2)n1 (centres unmarked) [Example 187]	0.037
CCCc1cc(N2CC[C@H](NCCCSC)C2)nc(Nc2ccc(C)c(C#N)c2)n1 [Example 415]	0.015
CCCc1cc(N2CC[C@H](NC(CC(C)C)CC(C)C)C2)nc(Nc2cccc(C#N)c2)n1 [Example 129, (S)-3-{4-[3-(2,6-dimethylheptan-4-ylamino)pyrrolidin-1-yl]-6-propylpyrimidin-2-ylamino}benzonitrile]	0.323
CCCc1cc(N2CC[C@H](NC(C)=O)C2)nc(Nc2ccc(N)c([N+](=O)[O-])c2)n1 [Example 286, (S)—N-{1-[2-(4-amino-3-nitrophenylamino)-6-propylpyrimidin-4-yl]pyrrolidin-3-yl}acetamide hydrochloride]	0.0047
CCCc1cc(N2CC[C@H](NC(=O)CO)C2)nc(Nc2ccc(F)c(N)c2)n1 [Example 478]	0.024
CCCc1cc(N2CC[C@H](NC)C2)nc(Nc2ccc(F)c(C(F)(F)F)c2)n1 [Example 490]	0.0048
CCCc1cc(N2CC[C@H](NCCCc3ccccc3)C2)nc(Nc2cccc(C#N)c2)n1 [Example 89, (S)-3-{4-[3-(3-phenylpropylamino)pyrrolidin-1-yl]-6-propylpyrimidin-2-ylamino}benzonitrile]	0.08
CCCc1cc(N2CCC[C@H]2CO)nc(Nc2cccc(SC)c2)n1 [Example 195]	0.25
CCCc1cc(N2CCC[C@H]2COC)nc(Nc2cccc(N)c2)n1 [Example 364]	0.122
CCCc1cc(N2CC[C@H](NC(C)=O)C2)nc(Nc2ccc(F)c(C(F)(F)F)c2)n1 [Example 253]	0.014
CCCc1cc(N2CC[C@H](N(CC3CC3)CC3CC3)C2)nc(Nc2cccc(C#N)c2)n1 [Example 100, (S)-3-(4-{3-[bis (cyclopropylmethyl)amino]pyrrolidin-1-yl}-6-propylpyrimidin-2-ylamino)benzonitrile]	0.31
CCCCc1cc(N2CC[C@H](NC)C2)nc(Nc2ccc(F)c(C#N)c2)n1 [Example 455]	0.0038
CCCc1cc(N2CCC[C@H]2C)nc(Nc2ccc(Cl)c([N+](=O)[O-])c2)n1 [Example 313, (R)—N-(4-chloro-3-nitrophenyl)-4-(2-methylpyrrolidin-1-yl)-6-propylpyrimidin-2-amine]	0.078
CCCc1cc(N2CC[C@H](NC)C2)nc(Nc2ccc(N)c([N+](=O)[O-])c2)n1 [Example 175]	0.229
CCCCCN[C@H]1CCN(c2cc(CCC)nc(Nc3ccc(C)c(C#N)c3)n2)C1 [Example 422]	0.011
CCCc1cc(N2CC[C@H](NC(C)=O)C2)nc(Nc2cccc(C(F)(F)F)c2)n1 [Example 244]	0.028
CCCc1cc(N2CC[C@H](NCC)C2)nc(Nc2ccc(N)c([N+](=O)[O-])c2)n1 [Example 177]	0.02
CCCc1cc(N2CCC(NC(C)=O)C2)nc(Nc2ccc(F)c(N)c2)n1 (centres unmarked) [Example 312]	0.023
CCCc1cc(N2CCC[C@H]2CO)nc(Nc2ccc(F)c(N)c2)n1 [Example 400]	0.033
